Here are results for 13 compounds from PubChem BioAssay AID328 (DTP/NCI, 2004).

In the experiment the test system is BDF1 mice, P388 leukemia ip, median survival T/C. The experiment is described as follows: NCI In Vivo Anticancer Drug Screen. Data for tumor model P388 Leukemia (intraperitoneal) in B6D2F1 (BDF1) mice. Conditions: endpoint: median survival time, higher = longer survival. In a few lines: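 Antitumour effect was judged in vivo: survival in drug-treated mice, normalised to that of vehicle-dosed controls, gives the reported T/C.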

Where [1] appears, read: dose: 25.0 mg/kg/injection, schedule: Q04DX003 (ip), vehicle: water.
Setting [2] is: dose: 50.0 mg/kg/injection, schedule: Q04DX003 (ip), vehicle: saline with Tween-80.
[3] abbreviates: dose: 100.0 mg/kg/injection, schedule: Q04DX003 (ip), vehicle: saline with Tween-80.
Where [4] appears, read: dose: 200.0 mg/kg/injection, schedule: Q04DX003 (ip), vehicle: saline with Tween-80.

The structures appear in SMILES notation. Values joined by “and” are separate entries in the source; they are usually repeats but may differ in a detail not shown here. Identical values can stand only once. Toxic doses and inconclusive results are not listed.

For the compound `Brc1cnc[nH]1`, the T/C is 103 % of control (dose: 25.0 mg/kg/injection, schedule: Q01DX009 (ip), vehicle: water); 106 % of control under setting [1]; 91 % of control (dose: 50.0 mg/kg/injection, schedule: Q01DX009 (ip), vehicle: water); 94 % of control and 106 % of control (dose: 50.0 mg/kg/injection, schedule: Q04DX003 (ip), vehicle: water); 87 % of control (dose: 100.0 mg/kg/injection, schedule: Q01DX009 (ip), vehicle: water); 93 % of control (2×) and 110 % of control (dose: 100.0 mg/kg/injection, schedule: Q04DX003 (ip), vehicle: water). In addition, the T/C reads like this: (dose: 200.0 mg/kg/injection, schedule: Q01DX009 (ip), vehicle: water) 100 % of control; (dose: 200.0 mg/kg/injection, schedule: Q04DX003 (ip), vehicle: water) 89 % of control and 97 % of control; (dose: 300.0 mg/kg/injection, schedule: Q04DX003 (ip), vehicle: water) 98 % of control; (dose: 400.0 mg/kg/injection, schedule: Q04DX003 (ip), vehicle: water) 94 % of control and 99 % of control and 103 % of control.
In the case of `O=C1c2cccc(O)c2C(=O)c2c(O)cc(CO)cc21`, the T/C runs as follows: (dose: 8.8 mg/kg/injection, schedule: Q01DX010 (ip), vehicle: other) 100 % of control; (dose: 10.0 mg/kg/injection, schedule: Q01DX010 (ip), vehicle: carboxymethylcellulose (CMC)) 122 % of control; (dose: 10.0 mg/kg/injection, schedule: Q01DX010 (ip), vehicle: other) 108 % of control; (dose: 13.0 mg/kg/injection, schedule: Q01DX010 (ip), vehicle: other) 111 % of control; (dose: 16.0 mg/kg/injection, schedule: Q01DX009 (ip), vehicle: gum acacia) 97 % of control; (dose: 20.0 mg/kg/injection, schedule: Q01DX009 (ip), vehicle: gum acacia) 106 % of control. Also, the T/C was 94 % of control (dose: 20.0 mg/kg/injection, schedule: Q01DX010 (ip), vehicle: carboxymethylcellulose (CMC)); 154 % of control (dose: 20.0 mg/kg/injection, schedule: Q01DX010 (ip), vehicle: other); 97 % of control (dose: 25.0 mg/kg/injection, schedule: Q01DX009 (ip), vehicle: gum acacia); 116 % of control (dose: 40.0 mg/kg/injection, schedule: Q01DX010 (ip), vehicle: carboxymethylcellulose (CMC)); 120 % of control (dose: 40.0 mg/kg/injection, schedule: Q01DX010 (ip), vehicle: other); 122 % of control (dose: 80.0 mg/kg/injection, schedule: Q01DX010 (ip), vehicle: carboxymethylcellulose (CMC)).
As to `CCc1ccc(C(C)(C)C)cc1`, the T/C is, setting by setting: under setting [2], 109 % of control; under setting [3], 104 % of control; (dose: 132.0 mg/kg/injection, schedule: Q01DX009 (ip), vehicle: saline with Tween-80) 118 % of control; under setting [4], 100 % of control.
As to `C(=N\Nc1nc2ccccc2s1)/c1ccccc1`, the T/C was 95 % of control (dose: 100.0 mg/kg/injection, schedule: Q01DX009 (ip), vehicle: Klucel (hydroxypropylcellulose) (HPC)); 109 % of control (dose: 200.0 mg/kg/injection, schedule: Q01DX009 (ip), vehicle: Klucel (hydroxypropylcellulose) (HPC)); 90 % of control (dose: 400.0 mg/kg/injection, schedule: Q01DX009 (ip), vehicle: Klucel (hydroxypropylcellulose) (HPC)).
Take `CC(=O)OCCN1CCN(CCCN2c3ccccc3Sc3ccc(C(F)(F)F)cc32)CC1`: the T/C runs as follows: (dose: 0.69 mg/kg/injection, schedule: Q01DX009 (ip), vehicle: saline) 104 % of control; (dose: 1.04 mg/kg/injection, schedule: Q01DX009 (ip), vehicle: saline) 104 % of control; (dose: 1.56 mg/kg/injection, schedule: Q01DX009 (ip), vehicle: saline) 120 % of control; (dose: 2.34 mg/kg/injection, schedule: Q01DX009 (ip), vehicle: saline) 108 % of control; (dose: 25.0 mg/kg/injection, schedule: Q04DX003 (ip), vehicle: saline with Tween-80) 117 % of control; under setting [2], 91 % of control.
Consider `Nc1nc(C=O)c(CCc2ccccc2)c(=O)[nH]1`, for which the T/C under setting [2] was 113 % of control.
As to `Cc1ccc(S(=O)(=O)N(C)c2cc(Cl)c(C(N)=O)c(Cl)c2)cc1`, the T/C is, setting by setting: (dose: 6.25 mg/kg/injection, schedule: Q01DX001 (ip), vehicle: saline sonified) 95 % of control; (dose: 12.5 mg/kg/injection, schedule: Q01DX001 (ip), vehicle: saline sonified) 100 % of control; (dose: 25.0 mg/kg/injection, schedule: Q01DX001 (ip), vehicle: saline sonified) 100 % of control; (dose: 50.0 mg/kg/injection, schedule: Q01DX009 (ip), vehicle: saline with Tween-80) 112 % of control; (dose: 100.0 mg/kg/injection, schedule: Q01DX009 (ip), vehicle: saline with Tween-80) 95 % of control; under setting [3], 105 % of control. Moreover, the T/C runs as follows: (dose: 200.0 mg/kg/injection, schedule: Q01DX009 (ip), vehicle: saline with Tween-80) 114 % of control; under setting [4], 97 % of control; (dose: 400.0 mg/kg/injection, schedule: Q01DX009 (ip), vehicle: saline with Tween-80) 95 % of control; (dose: 400.0 mg/kg/injection, schedule: Q04DX003 (ip), vehicle: saline with Tween-80) 106 % of control.
As for `COC(=O)C1(C)CSCCC1=O` (stereo not drawn), the T/C was 105 % of control (dose: 100.0 mg/kg/injection, schedule: Q01DX009 (ip), vehicle: saline); 100 % of control (dose: 100.0 mg/kg/injection, schedule: Q04DX003 (ip), vehicle: saline); 105 % of control (dose: 200.0 mg/kg/injection, schedule: Q01DX009 (ip), vehicle: saline); 100 % of control (dose: 200.0 mg/kg/injection, schedule: Q04DX003 (ip), vehicle: saline); 95 % of control (dose: 400.0 mg/kg/injection, schedule: Q01DX009 (ip), vehicle: saline); 95 % of control (dose: 400.0 mg/kg/injection, schedule: Q04DX003 (ip), vehicle: saline).
On to `O=S(=O)(O)CCBr`, for which the T/C (dose: 265.0 mg/kg/injection, schedule: Q01DX001 (ip), vehicle: saline) was 90 % of control; the T/C (dose: 267.0 mg/kg/injection, schedule: Q01DX001 (ip), vehicle: saline) was 100 % of control; the T/C (dose: 400.0 mg/kg/injection, schedule: Q01DX001 (ip), vehicle: saline) was 86 % of control and 90 % of control.
Turning to `O=C(CI)Nc1ccc(O)c2ccccc12`, the T/C is, setting by setting: (dose: 0.78 mg/kg/injection, schedule: Q01DX009 (ip), vehicle: water) 97 % of control; (dose: 1.56 mg/kg/injection, schedule: Q01DX009 (ip), vehicle: water) 106 % of control; (dose: 3.12 mg/kg/injection, schedule: Q01DX009 (ip), vehicle: water) 106 % of control; (dose: 6.25 mg/kg/injection, schedule: Q01DX009 (ip), vehicle: water) 108 % of control; (dose: 6.25 mg/kg/injection, schedule: Q04DX003 (ip), vehicle: water) 89 % of control; (dose: 12.5 mg/kg/injection, schedule: Q01DX009 (ip), vehicle: water) 123 % of control. Moreover, the T/C by setting is: (dose: 12.5 mg/kg/injection, schedule: Q04DX003 (ip), vehicle: water) 99 % of control; under setting [1], 104 % of control.
Consider `O=C1c2ccccc2-c2ncccc21`, for which the T/C reads like this: (dose: 100.0 mg/kg/injection, schedule: Q04DX003 (ip), vehicle: Klucel (hydroxypropylcellulose) (HPC)) 100 % of control; (dose: 200.0 mg/kg/injection, schedule: Q04DX003 (ip), vehicle: Klucel (hydroxypropylcellulose) (HPC)) 95 % of control.
On to `CC1=CC(=O)NP(=O)(Oc2ccc3ccccc3c2)N1` (stereo not drawn), for which the T/C runs as follows: (dose: 25.0 mg/kg/injection, schedule: Q04DX003 (ip), vehicle: saline + alcohol) 106 % of control; (dose: 50.0 mg/kg/injection, schedule: Q04DX003 (ip), vehicle: saline + alcohol) 98 % of control; (dose: 100.0 mg/kg/injection, schedule: Q04DX003 (ip), vehicle: saline + alcohol) 100 % of control; (dose: 200.0 mg/kg/injection, schedule: Q04DX003 (ip), vehicle: saline + alcohol) 94 % of control; (dose: 400.0 mg/kg/injection, schedule: Q04DX003 (ip), vehicle: saline + alcohol) 95 % of control.
On to `NNC(=O)c1ccc(Cl)cc1Nc1cccc(Cl)c1`, for which the T/C was 100 % of control (dose: 50.0 mg/kg/injection, schedule: Q01DX001 (ip), vehicle: saline with Tween-80); 100 % of control (dose: 100.0 mg/kg/injection, schedule: Q01DX001 (ip), vehicle: saline with Tween-80); 104 % of control (dose: 200.0 mg/kg/injection, schedule: Q01DX001 (ip), vehicle: saline with Tween-80).
